Test results published in patent US20040034106A1, “Treatment of anxiety disorders” (priority 2003, published 2004).
Where a name gives a salt, the structure may show the parent alone.

Test system: chronic fingernail biting
Test: Treatment of a subject with chronic fingernail biting (Example 1)
Assay type: in vivo, human
Method: A subject presented with chronic fingernail biting. The subject was treated with 60 mg of tomoxetine hydrochloride, twice daily for 13 consecutive days. […] The patient's chronic fingernail biting behavior resumed upon termination of treatment with tomoxetine hydrochloride.

CNCC[C@@H](Oc1ccccc1C)c1ccccc1 [tomoxetine hydrochloride, (R)-(−)-N-methyl-3-(2-methylphenoxy)-3-phenylpropylamine]
chronic fingernail biting at final assessment (60 mg twice daily for 13 consecutive days, healthy appearing fingernails except for one finger): significant improvement
chronic fingernail biting behavior upon termination of treatment (after 60 mg twice daily for 13 consecutive days was stopped): resumed
